From patent US20190209501A1, “COMPOSITIONS AND METHODS OF USE OF BETA-HYDROXY-BETA-METHYLBUTYRATE (HMB) […] IN[…]” (Texas Tech University Office of Research Commercialization, priority 2018, published 2019)

Experiment: Isometric squat rate of force development (RFD)
Assay type: in vivo, human
Set-up: RFD50 ms / RFD50 ms Δ / RFD100 ms / RFD100 ms Δ / RFD200 ms / RFD200 ms Δ / RFD30 ms / RFD30 ms Δ: unit not given here
Details: for RFD30 ms Δ / RFD30 ms Δ (%) / RFD50 ms Δ / RFD50 ms Δ (%) / RFD100 ms Δ / RFD100 ms Δ (%) / RFD200 ms Δ / RFD200 ms Δ (%): baseline to W 8; for RFD30 ms ES (d) / RFD50 ms ES (d) / RFD100 ms ES (d) / RFD200 ms ES (d): effect size
Procedure: Isometric and isokinetic squats were performed using a mechanized squat device (Exerbotics eSq, Tulsa, Okla., USA) (31, 32). At the first assessment, each participant's preferred foot positioning was determined using a custom grid overlaid on the foot platform of the squat device. This foot positioning was recorded and utilized for all visits. No weight belts, knee wraps, or other aids were utilized during testing. Prior to testing, the participant's range of motion for isokinetic testing was determined. The range of motion was set to 90° between the thigh and lower leg at the bottom of the repetition and approximately 170° at the top of the repetition, as determined by a goniometer. The isometric testing included maximal effort pushes at 120° and 150° knee angles. Each participant was instructed to push against the device as hard and fast as possible while attempting to complete a squat movement. Two isometric pushes were performed at each knee angle, and each effort lasted approximately 2 to 3 seconds. After the isometric testing, a 3-repetition maximum isokinetic force production test was completed. Prior to testing, participants observed the movement of the machine and received verbal instruction regarding proper performance of the assessment. Each of the repetitions during the maximal isokinetic force production test consisted of a 4-second eccentric phase, followed by an approximately half-second pause at the 90° knee position and a 4-second concentric phase. During testing, the force signal was sampled from the load cell at 1 kHz (MP100; Biopac Systems, Inc, Santa Barbara, Calif., USA), stored on a personal computer, and processed off-line using custom-written software (LabVIEW, Version 11.0; National Instruments, Austin, Tex., USA). The scaled force signal was low-pass filtered, with a 10-Hz cutoff (zero-phase lag, fourth-order Butterworth filter). All subsequent analyses were conducted on the scaled and filtered force signal. For the isometric force production tests, the rate of force development (RFD) over specific time intervals (i.e. 30, 50, 100 and 200 ms) was calculated by manually specifying the onset of force production within the custom LabVIEW program. For each repetition of the maximum isokinetic force production test, isokinetic peak forces (PF) were determined as the highest mean 25-ms epoch for both concentric and eccentric testing (i.e. PFCONC and PFECC).

`CC(C)(O)CC(=O)O` [TRFHMB, β-hydroxy-β-methylbutyrate] showed an RFD30 ms (ITT, knee angle 120°, Baseline) of 1638 ± 411, an RFD50 ms (ITT, knee angle 120°, Baseline) of 2017 ± 472 and an RFD100 ms (ITT, knee angle 120°, Baseline) of 2621 ± 719. It also gave an RFD200 ms (ITT, knee angle 120°, Baseline) of 3661 ± 503, an RFD30 ms (ITT, knee angle 120°, W 4) of 2131 ± 457 and an RFD50 ms (ITT, knee angle 120°, W 4) of 2760 ± 506. It also gave an RFD100 ms (ITT, knee angle 120°, W 4) of 3451 ± 759, an RFD200 ms (ITT, knee angle 120°, W 4) of 4121 ± 475 and an RFD30 ms (ITT, knee angle 120°, W 8) of 2606 ± 494. The RFD50 ms (ITT, knee angle 120°, W 8) was 3153 ± 510, the RFD100 ms (ITT, knee angle 120°, W 8) was 4205 ± 774 and the RFD200 ms (ITT, knee angle 120°, W 8) was 4332 ± 472. The “RFD30 ms Δ” value (ITT, knee angle 120°) was 969, the “RFD30 ms Δ (%)” value (ITT, knee angle 120°) was 59% and the “RFD50 ms Δ” value (ITT, knee angle 120°) was 1135. For the same compound, the “RFD50 ms Δ (%)” value (ITT, knee angle 120°) was 56%, the “RFD100 ms Δ” value (ITT, knee angle 120°) was 1585 and the “RFD100 ms Δ (%)” value (ITT, knee angle 120°) was 60%. The “RFD200 ms Δ” value (ITT, knee angle 120°) was 671, the “RFD200 ms Δ (%)” value (ITT, knee angle 120°) was 18% and the “RFD30 ms ES (d)” value (ITT, knee angle 120°) was 0.59. The “RFD50 ms ES (d)” value (ITT, knee angle 120°) was 0.64, the “RFD100 ms ES (d)” value (ITT, knee angle 120°) was 0.59 and the “RFD200 ms ES (d)” value (ITT, knee angle 120°) was 0.38. It also gave an RFD30 ms (ITT, knee angle 150°, Baseline) of 1922 ± 471, an RFD50 ms (ITT, knee angle 150°, Baseline) of 2203 ± 703 and an RFD100 ms (ITT, knee angle 150°, Baseline) of 2694 ± 825. It also gave an RFD200 ms (ITT, knee angle 150°, Baseline) of 3163 ± 491, an RFD30 ms (ITT, knee angle 150°, W 4) of 2612 ± 420 and an RFD50 ms (ITT, knee angle 150°, W 4) of 2989 ± 482. For the same compound, the RFD100 ms (ITT, knee angle 150°, W 4) was 3567 ± 750, the RFD200 ms (ITT, knee angle 150°, W 4) was 3511 ± 447 and the RFD30 ms (ITT, knee angle 150°, W 8) was 2851 ± 469. The RFD50 ms (ITT, knee angle 150°, W 8) was 3208 ± 468, the RFD100 ms (ITT, knee angle 150°, W 8) was 3944 ± 754 and the RFD200 ms (ITT, knee angle 150°, W 8) was 3876 ± 443. For the same compound, the “RFD30 ms Δ” value (ITT, knee angle 150°) was 929, the “RFD30 ms Δ (%)” value (ITT, knee angle 150°) was 48% and the “RFD50 ms Δ” value (ITT, knee angle 150°) was 1004. For the same compound, the “RFD50 ms Δ (%)” value (ITT, knee angle 150°) was 46%, the “RFD100 ms Δ” value (ITT, knee angle 150°) was 1251 and the “RFD100 ms Δ (%)” value (ITT, knee angle 150°) was 46%. For the same compound, the “RFD200 ms Δ” value (ITT, knee angle 150°) was 713, the “RFD200 ms Δ (%)” value (ITT, knee angle 150°) was 23% and the “RFD30 ms ES (d)” value (ITT, knee angle 150°) was 0.53. The “RFD50 ms ES (d)” value (ITT, knee angle 150°) was 0.45, the “RFD100 ms ES (d)” value (ITT, knee angle 150°) was 0.42 and the “RFD200 ms ES (d)” value (ITT, knee angle 150°) was 0.41. For the same compound, the RFD30 ms (PP, knee angle 120°, Baseline) was 1669 ± 662, the RFD50 ms (PP, knee angle 120°, Baseline) was 2016 ± 758 and the RFD100 ms (PP, knee angle 120°, Baseline) was 2642 ± 1153. The RFD200 ms (PP, knee angle 120°, Baseline) was 4079 ± 688, the RFD30 ms (PP, knee angle 120°, W 4) was 2267 ± 723 and the RFD50 ms (PP, knee angle 120°, W 4) was 3028 ± 787. It also gave an RFD100 ms (PP, knee angle 120°, W 4) of 3845 ± 1195, an RFD200 ms (PP, knee angle 120°, W 4) of 4636 ± 648 and an RFD30 ms (PP, knee angle 120°, W 8) of 2917 ± 675. For the same compound, the RFD50 ms (PP, knee angle 120°, W 8) was 3470 ± 675, the RFD100 ms (PP, knee angle 120°, W 8) was 4629 ± 1111 and the RFD200 ms (PP, knee angle 120°, W 8) was 4824 ± 569. For the same compound, the “RFD30 ms Δ” value (PP, knee angle 120°) was 1248, the “RFD30 ms Δ (%)” value (PP, knee angle 120°) was 75% and the “RFD50 ms Δ” value (PP, knee angle 120°) was 1454. The “RFD50 ms Δ (%)” value (PP, knee angle 120°) was 72%, the “RFD100 ms Δ” value (PP, knee angle 120°) was 1987 and the “RFD100 ms Δ (%)” value (PP, knee angle 120°) was 75%. For the same compound, the “RFD200 ms Δ” value (PP, knee angle 120°) was 745, the “RFD200 ms Δ (%)” value (PP, knee angle 120°) was 18% and the “RFD30 ms ES (d)” value (PP, knee angle 120°) was 0.71. For the same compound, the “RFD50 ms ES (d)” value (PP, knee angle 120°) was 0.77, the “RFD100 ms ES (d)” value (PP, knee angle 120°) was 0.66 and the “RFD200 ms ES (d)” value (PP, knee angle 120°) was 0.45. The RFD30 ms (PP, knee angle 150°, Baseline) was 2121 ± 770, the RFD50 ms (PP, knee angle 150°, Baseline) was 2420 ± 1187 and the RFD100 ms (PP, knee angle 150°, Baseline) was 3072 ± 1377. For the same compound, the RFD200 ms (PP, knee angle 150°, Baseline) was 3441 ± 708, the RFD30 ms (PP, knee angle 150°, W 4) was 2845 ± 625 and the RFD50 ms (PP, knee angle 150°, W 4) was 3274 ± 715. For the same compound, the RFD100 ms (PP, knee angle 150°, W 4) was 3940 ± 1178, the RFD200 ms (PP, knee angle 150°, W 4) was 3613 ± 634 and the RFD30 ms (PP, knee angle 150°, W 8) was 3177 ± 622. For the same compound, the RFD50 ms (PP, knee angle 150°, W 8) was 3572 ± 604, the RFD100 ms (PP, knee angle 150°, W 8) was 4346 ± 1070 and the RFD200 ms (PP, knee angle 150°, W 8) was 4237 ± 558. The “RFD30 ms Δ” value (PP, knee angle 150°) was 1056, the “RFD30 ms Δ (%)” value (PP, knee angle 150°) was 50% and the “RFD50 ms Δ” value (PP, knee angle 150°) was 1152. The “RFD50 ms Δ (%)” value (PP, knee angle 150°) was 48%, the “RFD100 ms Δ” value (PP, knee angle 150°) was 1274 and the “RFD100 ms Δ (%)” value (PP, knee angle 150°) was 41%. The “RFD200 ms Δ” value (PP, knee angle 150°) was 796, the “RFD200 ms Δ (%)” value (PP, knee angle 150°) was 23% and the “RFD30 ms ES (d)” value (PP, knee angle 150°) was 0.57. The “RFD50 ms ES (d)” value (PP, knee angle 150°) was 0.46, the “RFD100 ms ES (d)” value (PP, knee angle 150°) was 0.39 and the “RFD200 ms ES (d)” value (PP, knee angle 150°) was 0.47.
